Consider 26 compounds from ChEMBL document CHEMBL2321725, “Optimization of non-ATP competitive CDK/cyclin groove inhibitors through REPLACE-mediated fragment assembly” (J Med Chem, 2013).

Peptide text beside a SMILES is read from it. * marks the point of attachment. X14 = Cc1nc(C(=O)*)nn1-c1cc(Cl)cc(Cl)c1; X17 = Cc1cc(C(=O)*)nn1-c1cc(Cl)cc(Cl)c1; X18 = O=C(c1ccc(-c2cc(Cl)cc(Cl)c2)o1)*; X9 = O=C(c1ccn(-c2cc(Cl)cc(Cl)c2)c1)*; X13 = O=C(c1c[nH]c(-c2cccc(F)c2)n1)*; X11 = Cc1cc(C(=O)*)nn1-c1ccc(Cl)cc1; X12 = Cc1nc(C(=O)*)nn1-c1ccc(Cl)cc1; X16 = Cc1nc(C(=O)*)nn1-c1cccc(Cl)c1; X15 = O=C(c1ccn(-c2ccc(Cl)cc2)c1)*; X2 = Cc1cc(C(=O)*)nn1-c1cccc(Cl)c1; X3 = COc1ccc(-n2nc(C(=O)*)cc2C)cc1; X6 = COc1cccc(-n2nc(C(=O)*)cc2C)c1; X1 = Cc1cccc(-n2nc(C(=O)*)nc2C)c1; X4 = O=C(c1ccc(-c2cccc(Cl)c2)o1)*; X5 = O=C(c1csc(-c2ccc(Cl)cc2)n1)*; X7 = Cc1cc(C(=O)*)nn1-c1cccc(F)c1; X10 = Cc1cc(C(=O)*)nn1-c1ccccc1; X8 = Cn1cc(C(=O)*)nc1-c1ccccc1 Bounds are passed on as bounds.

Assay [1] concerns the target Cyclin-dependent kinase 2/cyclin A (Homo sapiens, UniProt P24941). The experiment in a line: Inhibition of human recombinant CDK2/Cyclin A2 using fluoresceinyl-Ahx-Pro-Val-Lys-Arg-Arg-Leu-Phe-Gly tracer peptide as substrate after 45 mins by fluorescent polarization binding assay. In kind it is protein-complex assay.
Assay [2] concerns the target Cyclin-dependent kinase 4/cyclin D1 (Homo sapiens, UniProt P11802). Put plainly: Inhibition of human recombinant CDK4/Cyclin D1 using fluoresceinyl-Ahx-Pro-Val-Lys-Arg-Arg-Leu-(3ClPhe)-Gly tracer peptide as substrate after 45 mins by fluorescent polarization binding assay.

Chain of Cyclin-dependent kinase 4/cyclin D1 (P11802 whole entry): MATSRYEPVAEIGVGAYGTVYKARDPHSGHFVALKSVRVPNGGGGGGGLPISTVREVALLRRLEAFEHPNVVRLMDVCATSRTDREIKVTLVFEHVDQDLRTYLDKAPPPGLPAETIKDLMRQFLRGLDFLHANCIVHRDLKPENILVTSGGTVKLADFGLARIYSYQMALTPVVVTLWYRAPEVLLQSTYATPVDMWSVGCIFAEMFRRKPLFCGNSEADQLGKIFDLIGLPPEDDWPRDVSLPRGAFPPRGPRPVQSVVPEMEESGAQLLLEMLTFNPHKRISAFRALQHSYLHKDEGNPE
Chain of Cyclin-dependent kinase 4/cyclin D1 (P24385 whole entry, further chain): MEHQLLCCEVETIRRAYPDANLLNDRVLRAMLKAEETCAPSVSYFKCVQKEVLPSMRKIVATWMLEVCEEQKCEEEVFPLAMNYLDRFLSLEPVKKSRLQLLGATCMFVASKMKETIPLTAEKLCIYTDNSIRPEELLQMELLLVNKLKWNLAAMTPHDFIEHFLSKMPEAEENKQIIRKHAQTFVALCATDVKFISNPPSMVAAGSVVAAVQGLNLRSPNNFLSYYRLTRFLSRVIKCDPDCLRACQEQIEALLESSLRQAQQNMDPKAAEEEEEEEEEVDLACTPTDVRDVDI

As for `CC[C@H](C)[C@H](NC(=O)[C@H](CC(C)C)NC(=O)[C@H](CCCNC(=N)N)NC(=O)c1cc(C)n(-c2cccc(Cl)c2)n1)C(=O)N[C@@H](Cc1ccccc1)C(N)=O` (X2-RLIF-NH2), the values for the concentration for half-maximal inhibition (IC50) in assay [1] and in assay [2] were 11.9 µM and 70.3 µM, respectively.
Taken in the same sequence, the figures for `Cc1ccccc1Oc1ccnc(CNC(=O)[C@H](CC(C)C)NC(=O)[C@H](CCCNC(=N)N)NC(=O)c2nc(C)n(-c3ccc(Cl)cc3)n2)c1` were 60 µM and above 500 µM.
For `CC[C@H](C)[C@H](NC(=O)[C@H](CC(C)C)NC(=O)[C@H](CCCNC(=N)N)NC(=O)c1cc(C)n(-c2cccc(F)c2)n1)C(=O)N[C@@H](Cc1ccccc1)C(N)=O` (X7-RLIF-NH2), in that order: 29.6 µM and 65.9 µM.
`CC[C@H](C)[C@H](NC(=O)[C@H](CC(C)C)NC(=O)[C@H](CCCNC(=N)N)NC(=O)c1nc(C)n(-c2cc(Cl)cc(Cl)c2)n1)C(=O)N[C@@H](Cc1ccccc1)C(N)=O` (X14-RLIF-NH2): the half-maximal inhibitory concentration (IC50) was 4 µM in assay [1] and 27.3 µM in assay [2].
Turning to `Cc1nc(C(=O)N[C@@H](CCCNC(=N)N)C(=O)N[C@@H](CC(C)C)C(=O)NCc2cc(Oc3cccc(F)c3)ccn2)nn1-c1ccc(Cl)cc1`, the 50% inhibitory concentration (IC50) in assay [1] is 53.2 µM; in assay [2] it was above 200 µM.
Taken in the same sequence, the figures for `CC[C@H](C)[C@H](NC(=O)[C@H](CC(C)C)NC(=O)[C@H](CCCNC(=N)N)NC(=O)c1csc(-c2ccc(Cl)cc2)n1)C(=O)N[C@@H](Cc1ccccc1)C(N)=O` (X5-RLIF-NH2) were above 180 µM and above 180 µM.
For `CC[C@H](C)[C@H](NC(=O)[C@H](CC(C)C)NC(=O)[C@H](CCCNC(=N)N)NC(=O)c1cn(C)c(-c2ccccc2)n1)C(=O)N[C@@H](Cc1ccccc1)C(N)=O` (X8-RLIF-NH2), in that order: above 180 µM and above 180 µM.
For `CC[C@H](C)[C@H](NC(=O)[C@H](CC(C)C)NC(=O)[C@H](CCCNC(=N)N)NC(=O)c1ccc(-c2cc(Cl)cc(Cl)c2)o1)C(=O)N[C@@H](Cc1ccccc1)C(N)=O` (X18-RLIF-NH2), the IC50 in assay [1] and in assay [2] was above 180 µM in each case.
On to `CC[C@H](C)[C@H](NC(=O)[C@H](CC(C)C)NC(=O)[C@H](CCCNC(=N)N)NC(=O)c1cc(C)n(-c2ccc(Cl)cc2)n1)C(=O)N[C@@H](Cc1ccccc1)C(N)=O` (X11-RLIF-NH2), for which the concentration for half-maximal inhibition (IC50) in assay [1] is 33.7 µM; in assay [2], 54.7 µM.
Regarding `CC[C@H](C)[C@H](NC(=O)[C@H](CC(C)C)NC(=O)[C@H](CCCNC(=N)N)NC(=O)c1ccn(-c2cc(Cl)cc(Cl)c2)c1)C(=O)N[C@@H](Cc1ccccc1)C(N)=O` (X9-RLIF-NH2), the 50% inhibitory concentration (IC50) in assay [1] and in assay [2] was above 180 µM each time.
In the case of `CC[C@H](C)[C@H](NC(=O)[C@H](CC(C)C)NC(=O)[C@H](CCCNC(=N)N)NC(=O)c1ccc(-c2cccc(Cl)c2)o1)C(=O)N[C@@H](Cc1ccccc1)C(N)=O` (X4-RLIF-NH2), the concentration for half-maximal inhibition (IC50) in assay [1] and in assay [2] was above 180 µM in each case.
`CC[C@H](C)[C@H](NC(=O)[C@H](CC(C)C)NC(=O)[C@H](CCCNC(=N)N)NC(=O)c1nc(C)n(-c2cccc(C)c2)n1)C(=O)N[C@@H](Cc1ccccc1)C(N)=O` (X1-RLIF-NH2): the IC50 came to 13.8 µM in assay [1] and 51.1 µM in assay [2].
For `Cc1nc(C(=O)N[C@@H](CCCNC(=N)N)C(=O)N[C@@H](CC(C)C)C(=O)NCc2cc(Oc3cccc(Cl)c3)ccn2)nn1-c1cc(Cl)cc(Cl)c1`, in that order: 61 µM and 120 µM.
Taken in the same sequence, the figures for `Cc1nc(C(=O)N[C@@H](CCCNC(=N)N)C(=O)N[C@@H](CC(C)C)C(=O)NCc2cc(Oc3ccc(F)cc3)ccn2)nn1-c1ccc(Cl)cc1` were 18.1 µM and above 200 µM.
For `CC[C@H](C)[C@H](NC(=O)[C@H](CC(C)C)NC(=O)[C@H](CCCNC(=N)N)NC(=O)c1cc(C)n(-c2ccc(OC)cc2)n1)C(=O)N[C@@H](Cc1ccccc1)C(N)=O` (X3-RLIF-NH2), in that order: above 180 µM and above 180 µM.
On to `CC[C@H](C)[C@H](NC(=O)[C@H](CC(C)C)NC(=O)[C@H](CCCNC(=N)N)NC(=O)c1c[nH]c(-c2cccc(F)c2)n1)C(=O)N[C@@H](Cc1ccccc1)C(N)=O` (X13-RLIF-NH2), for which the IC50 in assay [1] was 34.3 µM; in assay [2] it was 68.5 µM.
For `Cc1nc(C(=O)N[C@@H](CCCNC(=N)N)C(=O)N[C@@H](CC(C)C)C(=O)NCc2cccc(Oc3ccccc3)c2)nn1-c1ccc(Cl)cc1`, in that order: 106 µM and above 200 µM.
For `CC[C@H](C)[C@H](NC(=O)[C@H](CC(C)C)NC(=O)[C@H](CCCNC(=N)N)NC(=O)c1nc(C)n(-c2cccc(Cl)c2)n1)C(=O)N[C@@H](Cc1ccccc1)C(N)=O` (X16-RLIF-NH2), in that order: 5.7 µM and 26.5 µM.
For `CC[C@H](C)[C@H](NC(=O)[C@H](CC(C)C)NC(=O)[C@H](CCCNC(=N)N)NC(=O)c1cc(C)n(-c2cc(Cl)cc(Cl)c2)n1)C(=O)N[C@@H](Cc1ccccc1)C(N)=O` (X17-RLIF-NH2), in that order: 21.8 µM and above 100 µM.
Consider `Cc1nc(C(=O)N[C@@H](CCCNC(=N)N)C(=O)N[C@@H](CC(C)C)C(=O)NCc2cccc(Oc3cc(Cl)cc(Cl)c3)c2)nn1-c1cc(Cl)cc(Cl)c1`, for which the results for the IC50 in assay [1] and in assay [2] were above 180 µM and 120 µM, respectively.
Taken in the same sequence, the figures for `Cc1nc(C(=O)N[C@@H](CCCNC(=N)N)C(=O)N[C@@H](CC(C)C)C(=O)NCc2cc(Oc3ccc(F)c(F)c3)ccn2)nn1-c1cc(Cl)cc(Cl)c1` were above 180 µM and above 180 µM.
Take `CC[C@H](C)[C@H](NC(=O)[C@H](CC(C)C)NC(=O)[C@H](CCCNC(=N)N)NC(=O)c1ccn(-c2ccc(Cl)cc2)c1)C(=O)N[C@@H](Cc1ccccc1)C(N)=O` (X15-RLIF-NH2): the half-inhibitory concentration (IC50) in assay [1] and in assay [2] was above 180 µM each time.
For `CC[C@H](C)[C@H](NC(=O)[C@H](CC(C)C)NC(=O)[C@H](CCCNC(=N)N)NC(=O)c1cc(C)n(-c2ccccc2)n1)C(=O)N[C@@H](Cc1ccccc1)C(N)=O` (X10-RLIF-NH2), the half-inhibitory concentration (IC50) is 40.3 µM in assay [1] and 54.2 µM in assay [2].
For `CC[C@H](C)[C@H](NC(=O)[C@H](CC(C)C)NC(=O)[C@H](CCCNC(=N)N)NC(=O)c1cc(C)n(-c2cccc(OC)c2)n1)C(=O)N[C@@H](Cc1ccccc1)C(N)=O` (X6-RLIF-NH2), in that order: 64.1 µM and above 100 µM.
Taken in the same sequence, the figures for `Cc1nc(C(=O)N[C@@H](CCCNC(=N)N)C(=O)N[C@@H](CC(C)C)C(=O)NCc2cc(Oc3ccc(Cl)cc3)ccn2)nn1-c1ccc(Cl)cc1` were 54.4 µM and above 500 µM.
On to `CC[C@H](C)[C@H](NC(=O)[C@H](CC(C)C)NC(=O)[C@H](CCCNC(=N)N)NC(=O)c1nc(C)n(-c2ccc(Cl)cc2)n1)C(=O)N[C@@H](Cc1ccccc1)C(N)=O` (X12-RLIF-NH2), for which the values for the IC50 in assay [1] and in assay [2] were 11.5 µM and 12 µM, respectively.
